Measured values: patent US11066368B2, “Process for the preparation and particle size reduction of pirfenidone” (Laurus Labs Limited, priority 2016, dated 2021)

What was measured:
Type in all cases: physicochemical
[1] = Particle size distribution after wet milling with high speed homogenizer (Silverson L5M-A); conditions: water
Description: (§1) As used herein, the term “particle size distribution” is expressed in terms of D90, D50 and D10, which corresponds to the diameter of 90 percent by volume of the particles, 50 percent by volume of the particles and 10 percent by volume of the particles are present, respectively.
(§2) The particle size distribution of pirfenidone is measured utilizing: Instrument model: Malvern; Mastersizer 3000; particle refraction index of sample: 1.700; Absorption: 0.01 and Analysis model: general purpose, normal sensitivity, non-spherical particles.
Water (300 mL) and Pirfenidone (100 gr; Particle size distribution: D10: 1330 μm; D50: 1950 μm and D90: 2840 μm) were charged into reaction vessel at 25° C. to 35° C. and was placed High speed stirrer/Homogenizer into the reaction mass till required particle size was obtained at 25° C. to 35° C. Particle size distribution of the sample with different time interval was monitored by collecting the sample from reaction mass. After achieving the required particle size, stirred the reaction mixture for 30-60 min at 25° C. to 35° C. Further, the reaction mixture temperature was allowed to cool to 0° C. to 5° C. and stirred for 2-3 hrs at same temperature. Filter the solid and washed with the wet cake with chilled water (100 mL), dried the solid in an oven under vacuum at 60° C. for 4-6 hours.
The following examples were performed using the above described process with different rpm and time; the obtained results are tabulated below: […]

[2] = Particle size (D90) after ethyl acetate / n-heptane anti-solvent crystallisation
Description: The addition of antisolvent at different temperatures leads to formation of pirfenidone particles with different sizes; for instance: anti solvent addition at 0 to −10° C., preferably at −5±2° C. temperature forms small particles (D90: 50-100μ), at 0 to 10° C., preferably at 7±3° C. temperature forms particles of D90 at 100-150μ and at below 45° C. forms particles of D90 at 250-500μ.
(§3) Pirfenidone (83 g) was dissolved in ethyl acetate (425 mL), at 55-65° C., and then added to pre-cooled (−5±2° C.) n-Heptane (425 mL), over a period of 15-20 min, while maintaining temperature below 20° C. The suspension was stirred, at 0-5° C., for 1-2 h; filtered the product washed with chilled ethyl acetate (50 mL). The wet material was dried, at 60° C., under vacuum, for 6-8 h, to afford Pirfenidone as white colored powder. Yield: 65 g, HPLC purity 99.9%, PSD: (D90) 50-100μ.
as §3, with “Pirfenidone (81” for “Pirfenidone (83”, “pre-cooled (7±3°” for “pre-cooled (−5±2°”, “colored powder” for “colored powder.”, “Yield: 61” for “Yield: 65”, “(D90) 100-150μ.” for “(D90) 50-100μ.”
Pirfenidone (81 g) was dissolved in ethyl acetate (500 mL), at 50-55° C., and then added to pre-cooled (8±3° C.) n-Heptane (500 mL), over a period of 15-20 min, while maintaining temperature below 25° C. The suspension was stirred, at 5-10° C., for 1-2 h; filtered the product washed with chilled ethyl acetate (50 mL). The wet material was dried, at 60° C., under vacuum, for 6-8 h, to afford Pirfenidone as white colored powder Yield: 57 g, HPLC purity 99.9%, PSD: (D90) 150-250μ.
Pirfenidone (80 g) was dissolved in ethyl acetate (400 mL), at 55-65° C., and then added to n-Heptane (400 mL), over a period of 5-10 min, while maintaining temperature below 45° C. The suspension was stirred, at 25-30° C., for 1-2 h; filtered the product washed with chilled ethyl acetate (50 mL). The wet material was dried, at 60° C., under vacuum, for 6-8 h, to afford Pirfenidone as white colored powder, Yield: 55 g, HPLC purity 99.9%, PSD: (D90) 250-500μ.

[3] = Particle size distribution of unmilled input pirfenidone; conditions: input material before wet milling (Reference Example 5)
Description: as §1, §2
Dissolving crude Pirfenidone (50 g) in ethyl acetate (100 mL) at 65-75° C. and the reaction mass was treated with activated carbon (5 g) and filtered through a short bed of Hyflo. The filtrate was partially concentrated, under reduced pressure while maintain temperature below 60° C. The mixture was gradually allowed to cool to 30±5° C. and then stirred for another 30-60 min. The suspension was again allowed to cool to 0-5° C. and maintained for another 2-3 h, at the same temperature. The precipitated material was filtered and then dried at 60±5° C., for 6-8 h, to afford Pirfenidone as white colored powder (HPLC purity 99.9%; dimer content 0.03%). Yield: 45 g.

[4] = Minimum ignition energy test by MIKE3; conditions: dust cloud, dried at 50° C., sieved through 63μ
Description: This test was performed based on international test method VDI 2263 part 1.2.5 using MIKE3. Pirfenidone was dried at 50° C. under vacuum, sieved through 63μ sieve. The product was converted into a dust cloud in glass cylindrical tube with compressed air. The spark for ignition was provided with moving electrodes assembly at different energy levels from 1 mJ to 1000 mJ. The energy just sufficient to ignite the dust under ignition was determined. This ignition energy was then successively halved with variation of the dust concentration and the ignition delay time in a series of tests until no ignition takes place in at least 10 successive experiments. The minimum ignition energy MIE lies between the lowest energy value at which ignition occurred and at the energy value at which no ignition observed for 10 successive experiments. The recommendations for interpreting MIE results are based on energy levels available on MIKE 3 apparatus. According to usual practice, MIE can be ranked as follow: […]

[5] = 2000 RPM, stirring time 120 min
[6] = 2000 RPM, stirring time 240 min

Cc1ccc(=O)n(-c2ccccc2)c1 [Pirfenidone, 5-methyl-1-phenyl-2-1(H)-pyridone]
PSD D10 ([1]; 2000 RPM, stirring time 30 min): 24 μm
PSD D50 ([1]; 2000 RPM, stirring time 30 min): 82 μm
PSD D90 ([1]; 2000 RPM, stirring time 30 min): 230 μm
PSD D10 ([1]; 2000 RPM, stirring time 60 min): 24 μm
PSD D50 ([1]; 2000 RPM, stirring time 60 min): 88 μm
PSD D90 ([1]; 2000 RPM, stirring time 60 min): 200 μm
PSD D10 [1, 5]: 21 μm
PSD D50 [1, 5]: 75 μm
PSD D90 [1, 5]: 165 μm
PSD D10 [1, 6]: 21 μm
PSD D50 [1, 6]: 71 μm
PSD D90 [1, 6]: 154 μm
PSD D10 ([1]; 5000 RPM, stirring time 60 min): 17 μm
PSD D50 ([1]; 5000 RPM, stirring time 60 min): 48 μm
PSD D90 ([1]; 5000 RPM, stirring time 60 min): 108 μm
PSD D10 ([1]; 7000 RPM, stirring time 60 min): 13 μm
PSD D50 ([1]; 7000 RPM, stirring time 60 min): 42 μm
PSD D90 ([1]; 7000 RPM, stirring time 60 min): 91 μm
PSD: (D90) ([2]; Example 5: ethyl acetate solution, n-heptane anti-solvent at −5±2° C.): 50-100 μ
PSD: (D90) ([2]; Example 6: ethyl acetate solution, n-heptane anti-solvent at 7±3° C.): 100-150 μ
PSD: (D90) ([2]; Example 7: ethyl acetate solution, n-heptane anti-solvent at 8±3° C., temperature below 25° C.): 150-250 μ
PSD: (D90) ([2]; Example 8: ethyl acetate solution, n-heptane anti-solvent, temperature below 45° C.): 250-500 μ
Particle size distribution D10 [3]: 1330 μm
Particle size distribution D50 [3]: 1950 μm
Particle size distribution D90 [3]: 2840 μm
Es [4]: 1.7 mJ
Minimum ignition energy MIE [4]: 1.7 mJ
